Measured values: ChEMBL document CHEMBL2331210, “New 2-benzylsulfanyl-nicotinic acid based 1,3,4-oxadiazoles: their synthesis and biological evaluation” (2013)
In brackets after ≈: the same amount, converted by molar mass.

Tests used:
U-251 = assay: Antitumor activity against human U251 cells assessed as cell growth at 0.1 uM; type: functional; details: read-out: Activity
RPMI-8226 = assay: Antitumor activity against human RPMI8226 cells assessed as cell growth at 0.1 uM; type: functional; details: read-out: Activity
PC-3 = assay: Antitumor activity against human PC3 cells assessed as cell growth at 0.1 uM; type: functional; details: read-out: Activity
HCT-116 = assay: Antitumor activity against human HCT116 cells assessed as cell growth at 0.1 uM; type: functional; details: read-out: Activity
MDA-MB-231 = assay: Antitumor activity against human MDA-MB-231/ATCC cells assessed as cell growth at 0.1 uM; type: functional; details: read-out: Activity
OVCAR-3 = assay: Antitumor activity against human OVCAR3 cells assessed as cell growth at 0.1 uM; type: functional; details: read-out: Activity
SN12C = assay: Antitumor activity against human SN12C cells assessed as cell growth at 0.1 uM; type: functional; details: read-out: Activity
Candida albicans = assay: Antimicrobial activity against Candida albicans MTCC 227 assessed as growth inhibition measured after overnight incubation by broth dilution method; type: functional
Pseudomonas aeruginosa = assay: Antimicrobial activity against Pseudomonas aeruginosa MTCC 2488 assessed as growth inhibition measured after overnight incubation by broth dilution method; type: functional
UACC-257 = assay: Antitumor activity against human UACC257 cells assessed as cell growth at 0.1 uM; type: functional; details: read-out: Activity
NCI-H226 = assay: Antitumor activity against human NCI-H226 cells assessed as cell growth at 0.1 uM; type: functional; details: read-out: Activity
NCI-H460 = assay: Antitumor activity against human NCI-H460 cells assessed as cell growth at 0.1 uM; type: functional; details: read-out: Activity
OVCAR-8 = assay: Antitumor activity against human OVCAR8 cells assessed as cell growth at 0.1 uM; type: functional; details: read-out: Activity
[1] = Antitumor activity against human Hs 578T cells assessed as cell growth at 0.1 uM; type: functional; details: read-out: Activity
UO-31 = assay: Antitumor activity against human UO31 cells assessed as cell growth at 0.1 uM; type: functional; details: read-out: Activity
HOP-92 = assay: Antitumor activity against human HOP92 cells assessed as cell growth at 0.1 uM; type: functional; details: read-out: Activity
SNB-75 = assay: Antitumor activity against human SNB75 cells assessed as cell growth at 0.1 uM; type: functional; details: read-out: Activity
SR = assay: Antitumor activity against human SR cells assessed as cell growth at 0.1 uM; type: functional; details: read-out: Activity
UACC-62 = assay: Antitumor activity against human UACC62 cells assessed as cell growth at 0.1 uM; type: functional; details: read-out: Activity
SK-MEL-2 = assay: cells; details: Homo sapiens, SK-MEL-2, read-out: Activity
Description: Antitumor activity against human SK-MEL-2 cells assessed as cell growth at 0.1 uM

RXF 393 = assay: Antitumor activity against human RXF393 cells assessed as cell growth at 0.1 uM; type: functional; details: read-out: Activity
BT-549 = assay: Antitumor activity against human BT549 cells assessed as cell growth at 0.1 uM; type: functional; details: read-out: Activity
NCI-H23 = assay: Antitumor activity against human NCI-H23 cells assessed as cell growth at 0.1 uM; type: functional; details: read-out: Activity
SK-MEL-28 = assay: Antitumor activity against human SK-MEL-28 cells assessed as cell growth at 0.1 uM; type: functional; details: read-out: Activity
T47D = assay: Antitumor activity against human T47D cells assessed as cell growth at 0.1 uM; type: functional; details: read-out: Activity
SK-MEL-5 = assay: Antitumor activity against human SK-MEL-5 cells assessed as cell growth at 0.1 uM; type: functional; details: read-out: Activity
Escherichia coli = assay: Antimicrobial activity against Escherichia coli MTCC 443 assessed as growth inhibition measured after overnight incubation by broth dilution method; type: functional
LOX IMVI = assay: Antitumor activity against human LOXIMVI cells assessed as cell growth at 0.1 uM; type: functional; details: read-out: Activity
OVCAR-5 = assay: Antitumor activity against human OVCAR5 cells assessed as cell growth at 0.1 uM; type: functional; details: read-out: Activity
Malme-3M = assay: Antitumor activity against human MALME-3M cells assessed as cell growth at 0.1 uM; type: functional; details: read-out: Activity
Aspergillus niger = assay: Antimicrobial activity against Aspergillus niger MTCC 282 assessed as growth inhibition measured after overnight incubation by broth dilution method; type: functional
SF-539 = assay: Antitumor activity against human SF539 cells assessed as cell growth at 0.1 uM; type: functional; details: read-out: Activity
TK-10 = assay: Antitumor activity against human TK10 cells assessed as cell growth at 0.1 uM; type: functional; details: read-out: Activity
MOLT-4 = assay: Antitumor activity against human MOLT4 cells assessed as cell growth at 0.1 uM; type: functional; details: read-out: Activity
Streptococcus pyogenes = assay: Antimicrobial activity against Streptococcus pyogenes MTCC 442 assessed as growth inhibition measured after overnight incubation by broth dilution method; type: functional
A549 = assay: Antitumor activity against human A549/ATCC cells assessed as cell growth at 0.1 uM; type: functional; details: read-out: Activity
HT-29 = assay: Antitumor activity against human HT-29 cells assessed as cell growth at 0.1 uM; type: functional; details: read-out: Activity
CAKI-1 = assay: Antitumor activity against human CAKI-1 cells assessed as cell growth at 0.1 uM; type: functional; details: read-out: Activity
DU-145 = assay: Antitumor activity against human DU145 cells assessed as cell growth at 0.1 uM; type: functional; details: read-out: Activity
CCRF-CEM = assay: Antitumor activity against human CCRF-CEM cells assessed as cell growth at 0.1 uM; type: functional; details: read-out: Activity
IGROV-1 = assay: Antitumor activity against human IGROV1 cells assessed as cell growth at 0.1 uM; type: functional; details: read-out: Activity
MDA-MB-435 = assay: Antitumor activity against human MDA-MB-435 cells assessed as cell growth at 0.1 uM; type: functional; details: read-out: Activity
SK-OV-3 = assay: Antitumor activity against human SKOV3 cells assessed as cell growth at 0.1 uM; type: functional; details: read-out: Activity
MDA-MB-468 = assay: Antitumor activity against human MDA-MB-468 cells assessed as cell growth at 0.1 uM; type: functional; details: read-out: Activity
[2] = Antitumor activity against human EKVX cells assessed as cell growth at 0.1 uM; type: functional; details: read-out: Activity
SW-620 = assay: Antitumor activity against human SW620 cells assessed as cell growth at 0.1 uM; type: functional; details: read-out: Activity
ACHN = assay: Antitumor activity against human ACHN cells assessed as cell growth at 0.1 uM; type: functional; details: read-out: Activity
SF-268 = assay: Antitumor activity against human SF268 cells assessed as cell growth at 0.1 uM; type: functional; details: read-out: Activity
HL-60 = assay: Antitumor activity against human HL60(TB) cells assessed as cell growth at 0.1 uM; type: functional; details: read-out: Activity
Aspergillus clavatus = assay: Antimicrobial activity against Aspergillus clavatus MTCC 1323 assessed as growth inhibition measured after overnight incubation by broth dilution method; type: functional
[3] = system: Mycobacterium tuberculosis; assay: Antitubercular activity against Mycobacterium tuberculosis H37Rv assessed as growth inhibition after 12 to 28 days by L.J. agar MIC method; type: functional
OVCAR-4 = assay: Antitumor activity against human OVCAR4 cells assessed as cell growth at 0.1 uM; type: functional; details: read-out: Activity
HCT-15 = assay: Antitumor activity against human HCT15 cells assessed as cell growth at 0.1 uM; type: functional; details: read-out: Activity
Staphylococcus aureus = assay: Antimicrobial activity against Staphylococcus aureus MTCC 96 assessed as growth inhibition measured after overnight incubation by broth dilution method; type: functional
SF-295 = assay: Antitumor activity against human SF295 cells assessed as cell growth at 0.1 uM; type: functional; details: read-out: Activity
M14 = assay: Antitumor activity against human M14 cells assessed as cell growth at 0.1 uM; type: functional; details: read-out: Activity
[4] = Antitumor activity against human HCC2998 cells assessed as cell growth at 0.1 uM; type: functional; details: HCC 2998, read-out: Activity
MCF7 = assay: Antitumor activity against human MCF7 cells assessed as cell growth at 0.1 uM; type: functional; details: read-out: Activity
A498 = assay: Antitumor activity against human A498 cells assessed as cell growth at 0.1 uM; type: functional; details: read-out: Activity
SNB-19 = assay: Antitumor activity against human SNB19 cells assessed as cell growth at 0.1 uM; type: functional; details: read-out: Activity
NCI-H522 = assay: Antitumor activity against human NCI-H522 cells assessed as cell growth at 0.1 uM; type: functional; details: read-out: Activity
HOP-62 = assay: Antitumor activity against human HOP62 cells assessed as cell growth at 0.1 uM; type: functional; details: read-out: Activity
NCI/ADR-RES = assay: Antitumor activity against human NCI/ADR-RES cells assessed as cell growth at 0.1 uM; type: functional; details: read-out: Activity
K562 = assay: Antitumor activity against human K562 cells assessed as cell growth at 0.1 uM; type: functional; details: read-out: Activity

For `Cc1ccc2sc(-c3ccc(NC(=O)CSc4nnc(-c5cccnc5SCc5ccccc5)o4)cc3)nc2c1`, the growth at 0.1 µM (U-251) was 106%, the growth at 0.1 µM (RPMI-8226) was 92.2% and the growth at 0.1 µM (PC-3) was 91.8%. The growth at 0.1 µM (HCT-116) was 95.4%, the growth at 0.1 µM (MDA-MB-231) was 71.4% and the growth at 0.1 µM (OVCAR-3) was 100%. For the same compound, the growth at 0.1 µM (SN12C) was 102%, the MIC (Candida albicans) was 250 µg/mL (≈ 430 µM) and the MIC (Pseudomonas aeruginosa) was 62.5 µg/mL (≈ 107 µM). For the same compound, the growth at 0.1 µM (UACC-257) was 113%, the growth at 0.1 µM (NCI-H226) was 80.8% and the growth at 0.1 µM (NCI-H460) was 101%. For the same compound, the growth at 0.1 µM (OVCAR-8) was 94.3%, the growth at 0.1 µM [1] was 92.3% and the growth at 0.1 µM (UO-31) was 59.3%. The growth at 0.1 µM (HOP-92) was 93.4%, the growth at 0.1 µM (SNB-75) was 95.6% and the growth at 0.1 µM (SR) was 82.6%. For the same compound, the growth at 0.1 µM (UACC-62) was 104%, the growth at 0.1 µM (SK-MEL-2) was 89.8% and the growth at 0.1 µM (RXF 393) was 114%. For the same compound, the growth at 0.1 µM (BT-549) was 91.6%, the growth at 0.1 µM (NCI-H23) was 96.6% and the growth at 0.1 µM (SK-MEL-28) was 114%. It also gave a growth at 0.1 µM (T47D) of 87.8%, a growth at 0.1 µM (SK-MEL-5) of 89.9% and an MIC (Escherichia coli) of 100 µg/mL (≈ 172 µM). The growth at 0.1 µM (LOX IMVI) was 93.6%, the growth at 0.1 µM (OVCAR-5) was 107% and the growth at 0.1 µM (Malme-3M) was 99.3%. It also gave an MIC (Aspergillus niger) of 1000 µg/mL (≈ 1720 µM), a growth at 0.1 µM (SF-539) of 92.9% and a growth at 0.1 µM (TK-10) of 118%. It also gave a growth at 0.1 µM (MOLT-4) of 92.2%, an MIC (Streptococcus pyogenes) of 25 µg/mL (≈ 43 µM) and a growth at 0.1 µM (A549) of 104%. For the same compound, the growth at 0.1 µM (HT-29) was 100%, the growth at 0.1 µM (CAKI-1) was 87.8% and the growth at 0.1 µM (DU-145) was 87.5%. It also gave a growth at 0.1 µM (CCRF-CEM) of 93.1%, a growth at 0.1 µM (IGROV-1) of 99.7% and a growth at 0.1 µM (MDA-MB-435) of 107%. It also gave a growth at 0.1 µM (SK-OV-3) of 105%, a growth at 0.1 µM (MDA-MB-468) of 92.2% and a growth at 0.1 µM [2] of 89.9%. The growth at 0.1 µM (SW-620) was 104%, the growth at 0.1 µM (ACHN) was 90.8% and the growth at 0.1 µM (SF-268) was 91.6%. The growth at 0.1 µM (HL-60) was 97.3%, the MIC (Aspergillus clavatus) was 500 µg/mL (≈ 859 µM) and the “growth inhibition (GI)” value [3] was 99%. It also gave an MIC ([3]; Mycobacterium tuberculosis, H37Rv) of 62.5 µg/mL (≈ 107 µM), a growth at 0.1 µM (OVCAR-4) of 98.8% and a growth at 0.1 µM (HCT-15) of 111%. For the same compound, the MIC (Staphylococcus aureus) was 100 µg/mL (≈ 172 µM), the growth at 0.1 µM (SF-295) was 107% and the growth at 0.1 µM (M14) was 97.4%. It also gave a growth at 0.1 µM [4] of 106%, a growth at 0.1 µM (MCF7) of 81.2% and a growth at 0.1 µM (A498) of 105%. The growth at 0.1 µM (SNB-19) was 104%, the growth at 0.1 µM (NCI-H522) was 87.9% and the growth at 0.1 µM (HOP-62) was 96.8%. The growth at 0.1 µM (NCI/ADR-RES) was 99.5% and the growth at 0.1 µM (K562) was 101%.
